PMC10850145, “Hormonal steroids induce multidrug resistance and stress response genes in Neisseria gonorrhoeae by binding to MtrR” (Nature Communications, 2024)
“And” between values parts separate entries of the source, which are not always exact repeats. Equal entries are not always repeated. “Also recorded” adds a separate entry of the source.

Key:
MtrR [1] = target: T1, MtrR (Neisseria gonorrhoeae, UniProt P39897); experiment: Isothermal titration calorimetry, ligand binding to MtrR WT; conditions: ITC
T1 construct: Hexa-histidine tag with TEV protease cleavage site (N, cleaved yes); made in house; host or cells: E. coli Rosetta Gami B(DE3) pLysS
T1 sequence (P39897 whole entry): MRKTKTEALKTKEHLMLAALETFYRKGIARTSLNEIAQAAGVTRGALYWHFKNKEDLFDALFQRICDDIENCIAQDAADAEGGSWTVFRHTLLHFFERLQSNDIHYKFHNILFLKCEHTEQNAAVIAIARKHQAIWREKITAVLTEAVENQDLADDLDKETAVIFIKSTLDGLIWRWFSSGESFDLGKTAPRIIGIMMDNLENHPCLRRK

ngo1249-lacZ expression = experiment: β-galactosidase assay, ngo1249-lacZ fusion (negative control gene); conditions: WT-NGO1249-lacZ, 100 µM hormone
MtrR [2] = target: T1, MtrR; parameters: method as in PMID 31331979; conditions: cited from earlier work
[3] = target: T2, MtrR binding to mtrCDE operator (21mer) (Neisseria gonorrhoeae, UniProt P39897); experiment: Plate-based fluorescence polarization DNA-binding assay, mtrCDE operator; conditions: mtrCDE 21mer + 125µM
T2 construct: Hexa-histidine tag with TEV protease cleavage site (N, cleaved yes); made in house; host or cells: E. coli Rosetta Gami B(DE3) pLysS
T2 sequence (P39897 whole entry): as above
Method: (§1) To analyze the effect of ethinyl estradiol on DNA binding by MtrR, fluorescence polarization DNA-binding data were collected in 96-well plates (Costar #3915 black, flat bottom). with a SpectraMax M5e Microplate Reader (Molecular Devices) and analyzed with Prism (Graphpad Software, version 10.0.0). Purified MtrR was buffer exchanged into “DNA” binding buffer (150 mM NaCl, 20 mM Tris-HCl pH 7.5, 2.5% glycerol, 1 mM TCEP). […] The binding affinity of protein for DNA was determined using the Morrison’s quadratic equation[72]. BSA and dI-dC are included as carriers and to control for nonspecific DNA binding. Samples were excited at 485 nm and polarized emissions measured at 525 nm, with a 515 nm cutoff. Controls were run with no protein (DNA ± methanol, ethinyl estradiol) to ensure that millipolarization values were not affected by experimental conditions alone. At least three independent experimental measurements were averaged for each reported binding constant.
(§2) Figure S2: Presence of Ethinyl Estradiol influences binding of MtrR to rpoH and mtrCDE operators. Plate based Fluorescence polarization DNA-binding isotherms reveal decreases in the binding affinity of MtrR for the rpoH and mtrCDE operators in the presence of ethinyl estradiol.
(§3) Experiments were run on the three independent experimental measurements were averaged for each reported binding constant. Data are represented by the mean values (point) +/- SEM (error

rpoH-lacZ expression = type: cell-based, Neisseria gonorrhoeae; conditions: only when strain produced wild-type MtrR
MtrR W136A = target: T3, MtrR W136A (Neisseria gonorrhoeae, UniProt P39897, W136A); experiment: biochemical; type: binding; conditions: ITC
T3 construct: Hexa-histidine tag with TEV protease cleavage site (N, cleaved yes); made in house; host or cells: E. coli Rosetta Gami B(DE3) pLysS
T3 sequence (P39897 whole entry W136A): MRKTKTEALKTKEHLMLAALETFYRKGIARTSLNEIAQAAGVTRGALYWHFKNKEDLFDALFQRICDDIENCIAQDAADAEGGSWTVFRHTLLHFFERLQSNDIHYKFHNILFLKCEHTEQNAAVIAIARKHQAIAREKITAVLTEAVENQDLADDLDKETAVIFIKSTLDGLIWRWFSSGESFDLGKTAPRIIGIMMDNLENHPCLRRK

MtrR D171A = target: T4, MtrR D171A (Neisseria gonorrhoeae, UniProt P39897, D171A); experiment: biochemical; type: binding; conditions: ITC
T4 construct: Hexa-histidine tag with TEV protease cleavage site (N, cleaved yes); made in house; host or cells: E. coli Rosetta Gami B(DE3) pLysS
T4 sequence (P39897 whole entry D171A): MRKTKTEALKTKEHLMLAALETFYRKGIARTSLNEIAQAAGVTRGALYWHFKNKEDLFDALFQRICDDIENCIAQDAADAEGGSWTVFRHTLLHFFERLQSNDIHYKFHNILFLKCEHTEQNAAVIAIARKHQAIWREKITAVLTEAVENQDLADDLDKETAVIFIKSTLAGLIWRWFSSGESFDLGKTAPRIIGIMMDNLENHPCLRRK

[4] = target: T5, MtrR binding to rpoH operator (27mer) (Neisseria gonorrhoeae, UniProt P39897); experiment: Plate-based fluorescence polarization DNA-binding assay, rpoH operator; conditions: for fluorescence polarization, plate-based MtrR titration: rpoH 27mer + 125µM
T5 construct: Hexa-histidine tag with TEV protease cleavage site (N, cleaved yes); made in house; host or cells: E. coli Rosetta Gami B(DE3) pLysS
T5 sequence (P39897 whole entry): as the sequence (P39897 whole entry) above
Method: as §1, §2, §3

mtrC-lacZ expression = type: cell-based, Neisseria gonorrhoeae; conditions: only when strain produced wild-type MtrR

Structure (SMILES): CC(C)CCC[C@@H](C)[C@H]1CC[C@H]2[C@@H]3CC=C4C[C@@H](O)CC[C@]4(C)[C@H]3CC[C@]12C [cholesterol]
- binding to MtrR WT (MtrR [1]): no binding

Structure (SMILES): CC12CCC3c4ccc(O)cc4CCC3C1CCC2O (stereo not drawn) [Beta-Estradiol]
- Mean Miller units (ngo1249-lacZ expression): 4.6 Miller units

Structure (SMILES): C[C@H](CCC(=O)O)[C@H]1CC[C@H]2[C@@H]3[C@H](O)C[C@@H]4C[C@H](O)CC[C@]4(C)[C@H]3CC[C@]12C [chenodeoxycholate]
- MtrR binding and induction (MtrR [2]): binds and is induced by

Structure (SMILES): C[C@]12CCC(=O)C=C1CC[C@@H]1[C@@H]2[C@@H](O)C[C@@]2(C)[C@H]1CC[C@]2(O)C(=O)CO [cortisol]
- binding to MtrR WT (MtrR [1]): no binding

Structure (SMILES): C[C@H](CCC(=O)NCCS(=O)(=O)O)[C@H]1CC[C@H]2[C@@H]3CC[C@@H]4C[C@H](O)CC[C@]4(C)[C@H]3C[C@H](O)[C@]12C [taurodeoxycholate]
- MtrR binding and induction (MtrR [2]): binds and is induced by

Structure (SMILES): CC[C@H]1OC(=O)[C@H](C)[C@@H](O[C@H]2C[C@@](C)(OC)[C@@H](O)[C@H](C)O2)[C@H](C)[C@@H](O[C@@H]2O[C@H](C)C[C@H](N(C)C)[C@H]2O)[C@](C)(O)C[C@@H](C)CN(C)[C@H](C)[C@@H](O)[C@]1(C)O [azithromycin]
- binding to MtrR WT (MtrR [1]): no binding; also recorded: does not bind

Structure (SMILES): C#C[C@]1(O)CC[C@H]2[C@@H]3CCc4cc(O)ccc4[C@H]3CC[C@@]21C [Ethinyl Estradiol, ethinyl estradiol]
- fluorescence polarization, plate-based MtrR titration ([3]; MtrR WT dimer 0 nM): 0 mP
- fluorescence polarization, plate-based MtrR titration ([3]; MtrR WT dimer 37.5 nM): 6 mP and 5 mP
- fluorescence polarization, plate-based MtrR titration ([3]; MtrR WT dimer 75 nM): 9 mP and 8 mP and 10 mP
- fluorescence polarization, plate-based MtrR titration ([3]; MtrR WT dimer 100 nM): 11 mP and 12 mP
- fluorescence polarization, plate-based MtrR titration ([3]; MtrR WT dimer 150 nM): 12 mP and 15 mP and 13 mP
- fluorescence polarization, plate-based MtrR titration ([3]; MtrR WT dimer 200 nM): 18 mP and 21 mP and 16 mP
- fluorescence polarization, plate-based MtrR titration ([3]; MtrR WT dimer 300 nM): 28 mP and 21 mP
- fluorescence polarization, plate-based MtrR titration ([3]; MtrR WT dimer 400 nM): 26 mP and 30 mP and 27 mP
- fluorescence polarization, plate-based MtrR titration ([3]; MtrR WT dimer 600 nM): 31 mP and 27 mP and 29 mP
- fluorescence polarization, plate-based MtrR titration ([3]; MtrR WT dimer 800 nM): 33 mP and 36 mP and 34 mP
- binding stoichiometry N (ligand per MtrR) (MtrR [1]): ~ 1
- Kd (MtrR [1]; 25 °C, 1% MeOH, read-out: equilibrium dissociation constant (Kd), MtrR WT): 0.94 µM and ~0.94 µM
- induction of rpoH expression (rpoH-lacZ expression): could induce expression
- binding to MtrR W136A compared with wild type (MtrR W136A): tolerates binding
- binding to MtrR D171A (MtrR D171A): no observable binding
- change in binding affinity of MtrR for rpoH operator ([4]; presence of ethinyl estradiol, 125 µM): decreases in
- fluorescence polarization, plate-based MtrR titration ([4]; MtrR WT dimer 0 nM): 0 mP
- fluorescence polarization, plate-based MtrR titration ([4]; MtrR WT dimer 9.4 nM): 5 mP and 3 mP and 4 mP
- fluorescence polarization, plate-based MtrR titration ([4]; MtrR WT dimer 25 nM): 10 mP and 5 mP
- fluorescence polarization, plate-based MtrR titration ([4]; MtrR WT dimer 37.5 nM): 12 mP and 10 mP and 16 mP
- fluorescence polarization, plate-based MtrR titration ([4]; MtrR WT dimer 50 nM): 21 mP and 17 mP and 16 mP
- fluorescence polarization, plate-based MtrR titration ([4]; MtrR WT dimer 75 nM): 25 mP and 18 mP and 24 mP
- fluorescence polarization, plate-based MtrR titration ([4]; MtrR WT dimer 100 nM): 29 mP and 24 mP
- fluorescence polarization, plate-based MtrR titration ([4]; MtrR WT dimer 150 nM): 36 mP and 29 mP and 33 mP
- fluorescence polarization, plate-based MtrR titration ([4]; MtrR WT dimer 200 nM): 40 mP and 31 mP and 33 mP
- fluorescence polarization, plate-based MtrR titration ([4]; MtrR WT dimer 300 nM): 44 mP and 39 mP and 40 mP
- fluorescence polarization, plate-based MtrR titration ([4]; MtrR WT dimer 400 nM): 48 mP and 37 mP and 40 mP
- fluorescence polarization, plate-based MtrR titration ([4]; MtrR WT dimer 600 nM): 50 mP and 42 mP and 51 mP
- fluorescence polarization, plate-based MtrR titration ([4]; MtrR WT dimer 800 nM): 50 mP and 44 mP and 53 mP
- induction of mtrC expression (mtrC-lacZ expression): could induce expression
